Test results as given in US20100150845A1, “SYSTEM AND METHOD FOR THE DELIVERY OF A SANITIZING FOAM” (GREEN SOURCE AUTOMATED, LLC, priority 2008, published 2010).
Read-outs that look alike come from different tables or passages of the source.

How the values were obtained:
[1] = cited from earlier work
[2] = Gas dissolved in teat dip solution under pressure; assay type: physicochemical; conditions: standard room temperature and 100 psi pressure
Source text: The pressure vessel was constructed from a 0.1 m outside diameter piece of stainless steel tubing. The ends of the tube were capped with tri clover fittings to allow ease of access. The tri-clover caps were modified by adding two entry points on the proximal cap. One entry point on the proximal cap is to allow propellant/diffused gas to be introduced and the other is used to bleed off atmospheric air, when the tank was initially filled with propellant/diffused gas and to relieve pressure before refilling. On the distal cap of the tank two openings were added, each with tubing securely attached and each tube going to a manual shut off valve with a spray nozzle attached. A propellant/diffusion gas source with regulator was attached to the pressure vessel through the entry point on the proximal cap. The pressure vessel is filled about half full with teat dip solution, closed and the tank is pressurized with approximately 100 pounds per square inch (psi) of propellant/diffusion gas, except for the 50% carbon dioxide and 50% nitrous oxide propellant/diffusion gas which is set at 150 psi. The distance and angle from nozzle to teat is 0.15 m and 45 degrees from the horizontal (which were set to mimic a robotic tool used for some embodiments). […]

SMILES	vapor pressure ([1]; at 185° K.)	vapor pressure ([1]; at 290° K.)	volumes of gas dissolved per volume of dip solution [2]	volumes of gas dissolved in one volume of the dip solution [2]
O=C=O [CO2, Carbon dioxide]	approximately 0.45 bar	approximately 50 bar	approximately 4.5 volumes	
[N-]=[N+]=O [Example N2O, nitrous oxide]	approximately 1 bar	approximately 50 bar		approximately four
